Results on five compounds are retold here after US7572765B2, “Conformationally constrained parathyroid hormone (PTH) analogs” (The General Hospital Corporation, priority 2001, dated 2009).

Entries after “also recorded” stand apart in the source; their conditions may differ. Square brackets hold non-standard residues; d marks the D form. Peptide text beside a SMILES is read from it. hArg = N=C(N)NCCCC[C@H](N)C(=O)O; Aib = CC(C)(N)C(=O)O

Test [1] concerns the target T1, wild-type human P1R (hP1R-WT) (Homo sapiens, UniProt Q03431).
T1 construct: expressed in transfected cells; host or cells: COS-7 (transient, FuGENE 6)
T1 sequence (Q03431 27-593): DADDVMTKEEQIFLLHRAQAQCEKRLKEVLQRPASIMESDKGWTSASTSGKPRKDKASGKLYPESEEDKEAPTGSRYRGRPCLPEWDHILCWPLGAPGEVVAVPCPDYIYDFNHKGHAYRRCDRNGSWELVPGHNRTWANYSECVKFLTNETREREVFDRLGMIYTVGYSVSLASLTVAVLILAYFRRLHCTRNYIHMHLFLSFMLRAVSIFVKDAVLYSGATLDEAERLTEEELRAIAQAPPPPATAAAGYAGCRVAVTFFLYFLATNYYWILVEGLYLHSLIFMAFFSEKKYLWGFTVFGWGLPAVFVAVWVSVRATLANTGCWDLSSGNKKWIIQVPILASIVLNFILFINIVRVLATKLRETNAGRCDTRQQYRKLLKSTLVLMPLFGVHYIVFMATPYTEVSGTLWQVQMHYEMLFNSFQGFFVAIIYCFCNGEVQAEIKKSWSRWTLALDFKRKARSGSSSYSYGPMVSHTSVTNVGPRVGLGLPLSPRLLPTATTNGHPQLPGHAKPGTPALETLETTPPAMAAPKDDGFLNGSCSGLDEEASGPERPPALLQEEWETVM
The test can be described thus: Competition binding in COS-7 cells expressing hP1R-WT. How it is done: Cell Culture. The cell line HKRK-B28 (Takasu, H., et al., J. Bone Miner. Res. 14:11-20 (1999)) was derived from the porcine kidney cell line, LLC-PK1 by stable transfection with plasmid DNA encoding the human P1R and expresses ˜280,000 receptors per cell. These cells, as well as COS-7 cells and SaOS-2-B10 cells, were cultured at […] in T-75 flasks ([…]) in Dulbecco's modified Eagle's medium (DMEM) supplemented with fetal bovine serum (10%), penicillin G (20 units/ml), streptomycin sulfate (20 μg/ml) and amphotericin B (0.05 μg/ml) in a humidified atmosphere containing 5% CO2. Stock solutions of EGTA/trypsin and antibiotics were from GIBCO; fetal bovine serum was from Hyclone Laboratories (Logan, Utah). COS-7 cells sub-cultured in 24-well plates were transfected with plasmid DNA (200 ng per well) encoding the wild-type human P1R or truncated human P1R deleted for residues (24-181) (Shimizu, M., et al., J. Biol. Chem. 275:21836-21843 (2000)) that was purified by cesium chloride/ethidium bromide density gradient centrifugation, and FuGENE 6 transfection reagent (Roche Indianapolis Ind.) according to the manufacturer's recommended procedure. All cells, in 24-well plates, were treated with fresh media and shifted to 33° C. for 12 to 24 h prior to assay.
Competition Binding. Binding reactions were performed with HKRK-B28 cells or in COS-7 cells in 24-well plates. The cells were rinsed with 0.5 mL of binding buffer, and then treated successively with 100 μL binding buffer, 100 μL of binding buffer containing various amounts of unlabeled competitor ligand, and 100 μL of binding buffer containing ca. 100,000 cpm of ^125I-[M]PTH(1-21) or ^125I-[Aib^1,3,M]PTH(1-21)} (ca. 26 fmol; final volume=300 μL). Incubations were 4 to 6 h at 4° C., at which time near equilibrium conditions were attained. Cells were then placed on ice, the binding medium was removed, and the monolayer was rinsed three times with 0.5 mL of cold binding buffer. The cells were subsequently lysed with 0.5 mL […] and counted for radioactivity. For each tracer and in each experiment, the non-specific binding was determined as the radioactivity that bound in the presence of the same unlabeled peptide at a concentration of 1 μM, and was ˜1% of total radioactivity added for each tracer. The maximum specific binding (B0) was the total radioactivity bound in the absence of competing ligand, corrected for nonspecific binding, and for each tracer, ranged from 8% to 20% of the total radioactivity added. Nonlinear regression was used to calculate binding IC50 values (see below). Scatchard transformations of homologous competition binding data derived from studies with 26 fmol of ^125I-[Aib^1,3,M]PTH(1-21) were employed for estimations of apparent equilibrium dissociation constant (kDapps) and total number of ligand binding sites (Bmax), assuming a single class of binding sites and equal affinities of the iodinated and non iodinated ligand.
Data Calculation. Calculations were performed using Microsoft® Excel. Nonlinear regression analyses of binding and cAMP dose-response data were performed using the four-parameter equation: yp=Min+[(Max−Min)/(1+(IC50/x)^slope)]. […] Differences between paired data sets were statistically evaluated using a one-tailed Student's t-test, assuming unequal variances for the two sets. […]

Test [2] deals with embryonic mouse metatarsals. Put plainly: Inhibition of chondrocyte differentiation in embryonic mouse metatarsals (explant assay). It is filed as cell-based. Particulars: for effect on mineralization / chondrocyte differentiation: E15.5 mouse metatarsals, 48 h treatment, PTH(1-34) 0.1 μM, [Aib^1,3,M]PTH(1-14) 1 μM, native PTH(1-14) 2 μM; for expression of the collagen X gene (mRNA in situ hybridization): explanted metatarsals, data not shown. Here is the method:
Inhibition of Chondrocyte Differentiation in Embryonic Mouse Metatarsals. Metatarsals from embryonic day (E) 15.5 mouse embryos were excised and cultured in a 37° C. humidified incubator (5% CO2) in serum -free αXMEM media in 24 well plates. Sixteen hours later, a PTH analog or vehicle was added, and the samples were incubated for an additional 48 h in 37° C. with peptide or vehicle added again at the 24 h time point. At the end of the 64 h incubation period, the samples were fixed with 10% formalin/phosphate-buffered saline, then directly visualized on a dissecting microscope using white light. Sections were processed for in-situ hybridization analysis using ^35S-labeled riboprobes specific for collagen type X mRNA, a developmental marker gene expressed only in hypertrophic chrondrocytes of the growth plate.
Whether or not [Aib^1,3,M]PTH(1-14) activity could be detected in a more intact bone system was studied in an explant assay. An explant assay utilized cartilaginous metatarsal rudiments isolated from E15.5mouse embryos and subsequently cultured in multi-well plates containing serum-free media. A PTH peptide analog or vehicle control, was added to the culture 16 h after explantion, then again at 24 h. The incubation was terminated 24 h later for a total of 48 h of treatment over a 64 h period. In the absence of PTH, chondrocyte differentation occurred, such that by the end of the experiment, dense mineralization was apparent at the bone's mid-section (FIG. 5A). […] These inhibitory effects were consistent with the known capacity of PTHRP to retard chondrocyte differentiation in the growth plate cartilage of developing long bones (Pellegrini, M., et al., Biochemistry 37:12737-12743 (1998)).

Where [3] appears, read: COS-7 cells, hP1R-WT, tracer 125I-[Aib^1,3,M]PTH(1-21), N.B. = no inhibition of tracer binding.

Take `CC[C@H](C)[C@H](NC(=O)[C@H](CCC(=O)O)NC(=O)C(C)(C)NC(=O)[C@@H](NC(=O)C(C)(C)N)C(C)C)C(=O)N[C@@H](CCC(N)=O)C(=O)N[C@@H](CC(C)C)C(=O)N[C@@H](CCSC)C(=O)N[C@@H](Cc1c[nH]cn1)C(=O)N[C@@H](CCC(N)=O)C(=O)N[C@@H](CCCCNC(=N)N)C(N)=O` [[Aib^1,3,M]PTH(1-11), AibValAibGluIleGlnLeuMetHisGlnHar] (H-[Aib]V[Aib]EIQLMHQ[hArg]-NH2): in test [1] (setting [3]), the IC50 (usually the concentration at which inhibition is half-maximal) turned out to be 16 µM. In the case of `CC[C@H](C)[C@H](NC(=O)[C@H](CCC(=O)O)NC(=O)C(C)(C)NC(=O)[C@@H](NC(=O)C(C)(C)N)C(C)C)C(=O)N[C@@H](CCC(N)=O)C(=O)N[C@@H](CC(C)C)C(=O)N[C@@H](CCSC)C(=O)N[C@@H](Cc1c[nH]cn1)C(=O)N[C@@H](CCC(N)=O)C(=O)N[C@@H](CCCCNC(=N)N)C(=O)N[C@@H](C)C(=O)N[C@@H](CCCCN)C(=O)N[C@@H](Cc1c[nH]c2ccccc12)C(N)=O` [[Aib^1,3,M]PTH(1-14), AibValAibGluIleGlnLeuMetHisGlnHarAlaLysTrp] (H-[Aib]V[Aib]EIQLMHQ[hArg]AKW-NH2), in test [1] (P1R-WT), the “binding affinity, fold stronger than [M]PTH(1-14)” value is reported as ~10 fold. Besides, in test [2], the “effect on mineralization / chondrocyte differentiation” value is “no mineralization was observed; also recorded: inhibited mineralization” and the “expression of the collagen X gene (mRNA in situ hybridization)” value is given as “inhibited expression of the collagen X gene”. Turning to “H-AVSEIQLMHNLGKH-NH2 [PTH(1-14), reference compound]”, in test [1] (setting [3]), the “Binding IC50” value is on record as “N.B”. In addition, in test [2], the “effect on mineralization / chondrocyte differentiation” value is listed as “no effect could be detected; also recorded: mineralization can be detected”. Consider `CCCC[C@H](NC(=O)[C@H](CCCNC(=N)N)NC(=O)[C@H](CCC(=O)O)NC(=O)[C@@H](NC(=O)[C@H](CO)NC(=O)[C@H](C)NC(=O)[C@H](CC(C)C)NC(=O)[C@H](Cc1c[nH]cn1)NC(=O)[C@H](CCCCN)NC(=O)CNC(=O)[C@H](CC(C)C)NC(=O)[C@H](CC(N)=O)NC(=O)[C@H](Cc1c[nH]cn1)NC(=O)[C@H](CCCC)NC(=O)[C@H](CC(C)C)NC(=O)[C@H](CCC(N)=O)NC(=O)[C@@H](NC(=O)[C@H](CCC(=O)O)NC(=O)[C@H](CO)NC(=O)[C@@H](NC(=O)[C@H](C)N)C(C)C)[C@@H](C)CC)C(C)C)C(=O)N[C@@H](CCC(N)=O)C(=O)N[C@@H](Cc1c[nH]c2ccccc12)C(=O)N[C@@H](CC(C)C)C(=O)N[C@@H](CCCNC(=N)N)C(=O)N[C@@H](CCCCN)C(=O)N[C@@H](CCCCN)C(=O)N[C@@H](CC(C)C)C(=O)N[C@@H](CCC(N)=O)C(=O)N[C@@H](CC(=O)O)C(=O)N[C@H](C(=O)N[C@@H](Cc1c[nH]cn1)C(=O)N[C@@H](CC(N)=O)C(=O)N[C@@H](Cc1ccc(O)cc1)C(N)=O)C(C)C` [PTH(1-34), [Nle^8,21, Tyr^34]PTH(1-34)amide, reference compound], for which, in test [2], the “effect on mineralization / chondrocyte differentiation” value is recorded as “no mineralization was observed; also recorded: inhibited mineralization” and the “expression of the collagen X gene (mRNA in situ hybridization)” value is “inhibited expression of the collagen X gene”. As for `CC[C@H](C)[C@H](NC(=O)[C@H](CCC(=O)O)NC(=O)C(C)(C)NC(=O)[C@@H](NC(=O)C(C)(C)N)C(C)C)C(=O)N[C@@H](CCC(N)=O)C(=O)N[C@@H](CC(C)C)C(=O)N[C@@H](CCSC)C(=O)N[C@@H](Cc1c[nH]cn1)C(=O)N[C@@H](CCC(N)=O)C(N)=O` [[Aib^1,3,M]PTH(1-10), [Aib^1,3,Gln^10]PTH(1-10)] (H-[Aib]V[Aib]EIQLMHQ-NH2), in test [1] (setting [3]), the “Binding IC50” value was “N.B”.
